Tests used:
ΔF508-CFTR [1] = molecular target: T1, ΔF508-CFTR (Homo sapiens, UniProt P13569, DEL508-508); assay: CFTR cell surface levels using HRP-tagged ΔF508-CFTR expressing CFBE cells, in the presence of a co-corrector; type: cell-based; conditions: HRP-tagged ΔF508-CFTR expressing CFBE cells, in the presence of 3 μM co-corrector; for EC50: read-out: EC50
T1 construct: host or cells: CFBE41o-, doxycycline-inducible
Outline: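 Cells were seeded with 0.5 μg/mL doxycycline and held 68 h at 37 °C. Test compounds plus 3 μM co-corrector (final 0.1% DMSO) were then added for 20 h at 33 °C. Washed cells received HRP substrate, and luminescence was normalized between DMSO and 3 μM co-corrector controls.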

ΔF508-CFTR [2] = molecular target: T1, ΔF508-CFTR; assay: CFTR cell surface levels using HRP-tagged ΔF508-CFTR expressing CFBE cells, intrinsic corrector capacity; type: cell-based; conditions: HRP-tagged ΔF508-CFTR CFBE41o- cells, compounds alone (intrinsic corrector capacity), 20 hours at 33° C.; for % Activation: positive control 3 μM corrector; for EC50: read-out: EC50
Outline: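 Here the cells express ΔF508-CFTR with horseradish peroxidase inserted in extracellular loop 4, so only rescued channel at the surface gives luminescent signal. Compounds act on their own, 20 h at the reduced temperature of 33 °C; values are percent activity relative to DMSO and a 3 μM corrector.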

T1 sequence (P13569 with tags, fused parts or gaps DEL508-508): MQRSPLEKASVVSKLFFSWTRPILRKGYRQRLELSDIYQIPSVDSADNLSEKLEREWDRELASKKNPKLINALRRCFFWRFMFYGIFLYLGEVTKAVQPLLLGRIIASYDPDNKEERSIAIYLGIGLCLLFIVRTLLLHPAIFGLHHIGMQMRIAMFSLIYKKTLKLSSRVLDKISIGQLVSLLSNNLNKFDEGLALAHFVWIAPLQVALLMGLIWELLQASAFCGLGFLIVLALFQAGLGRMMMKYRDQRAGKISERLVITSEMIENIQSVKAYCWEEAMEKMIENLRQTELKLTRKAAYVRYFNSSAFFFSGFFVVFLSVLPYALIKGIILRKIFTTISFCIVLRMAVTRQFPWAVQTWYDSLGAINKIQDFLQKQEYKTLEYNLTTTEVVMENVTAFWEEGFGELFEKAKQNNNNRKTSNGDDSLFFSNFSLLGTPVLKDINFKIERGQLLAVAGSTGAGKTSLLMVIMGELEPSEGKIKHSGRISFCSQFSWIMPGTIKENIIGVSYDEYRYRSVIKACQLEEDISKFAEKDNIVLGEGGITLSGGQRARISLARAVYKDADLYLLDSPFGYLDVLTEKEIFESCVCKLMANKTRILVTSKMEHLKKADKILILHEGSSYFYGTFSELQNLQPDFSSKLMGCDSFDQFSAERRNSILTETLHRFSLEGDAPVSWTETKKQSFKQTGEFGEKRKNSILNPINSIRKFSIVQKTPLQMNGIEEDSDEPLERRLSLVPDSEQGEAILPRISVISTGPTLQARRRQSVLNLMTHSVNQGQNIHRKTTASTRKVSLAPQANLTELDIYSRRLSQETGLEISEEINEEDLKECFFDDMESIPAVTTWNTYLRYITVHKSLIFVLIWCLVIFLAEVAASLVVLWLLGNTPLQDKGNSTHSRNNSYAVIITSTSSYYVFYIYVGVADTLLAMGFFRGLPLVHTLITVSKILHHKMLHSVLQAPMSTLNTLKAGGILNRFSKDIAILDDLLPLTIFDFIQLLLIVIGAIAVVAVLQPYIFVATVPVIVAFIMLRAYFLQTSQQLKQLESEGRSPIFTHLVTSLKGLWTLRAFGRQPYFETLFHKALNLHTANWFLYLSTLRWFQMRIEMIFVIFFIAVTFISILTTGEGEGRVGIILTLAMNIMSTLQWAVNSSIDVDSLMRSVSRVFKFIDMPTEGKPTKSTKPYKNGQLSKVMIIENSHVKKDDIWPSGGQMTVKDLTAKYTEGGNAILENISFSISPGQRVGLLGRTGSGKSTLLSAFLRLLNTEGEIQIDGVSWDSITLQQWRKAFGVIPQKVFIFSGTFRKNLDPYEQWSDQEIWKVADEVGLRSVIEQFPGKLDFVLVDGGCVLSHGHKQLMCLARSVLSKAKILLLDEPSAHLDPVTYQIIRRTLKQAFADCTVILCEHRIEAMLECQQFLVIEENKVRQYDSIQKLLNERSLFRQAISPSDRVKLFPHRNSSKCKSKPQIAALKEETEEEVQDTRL

Row | Compound | % Activation (ΔF508-CFTR [1]) [%] | EC50 (ΔF508-CFTR [1]) [nM] | % Activation (ΔF508-CFTR [2]) [%] | EC50 (ΔF508-CFTR [2]) [nM]
1 | CN(c1ccc(-c2cc(C(=O)O)nc3c2c(C2CCC2)nn3-c2cccc(N3CCCC3)c2)cc1)C1CCOCC1 [compound 251, 3-cyclobutyl-4-{4-[methyl(oxan-4-yl)amino]phenyl}-1-[3-(pyrrolidin-1-yl)phenyl]-1H-pyrazolo[3,4-b]pyridine-6-carboxylic acid] | 577.73 | 353 | 389.2 | 438
2 | CN(c1ccc(-c2cc(C(=O)O)nc3c2c(C2CCC2)nn3-c2cccc(N3CCCC3)c2)cn1)C1CCOCC1 [compound 252, 3-cyclobutyl-4-{6-[methyl(oxan-4-yl)amino]pyridin-3-yl}-1-[3-(pyrrolidin-1-yl)phenyl]-1H-pyrazolo[3,4-b]pyridine-6-carboxylic acid] | 630.25 | 505 | 398.4 | 698
3 | COCCN(C)c1ccc(-c2cc(C(=O)O)nc3c2c(C(C)C)nn3-c2cccc(N3CCCC3)c2)cn1 [compound 253, 4-{6-[(2-methoxyethyl)(methyl)amino]pyridin-3-yl}-3-(propan-2-yl)-1-[3-(pyrrolidin-1-yl)phenyl]-1H-pyrazolo[3,4-b]pyridine-6-carboxylic acid] | 568.13 | 425 | 375.87 | 656
4 | CC(C)c1nn(C2CCCCC2)c2nc(C(=O)O)cc(-c3ccc(N(C)C4CCOCC4)cc3)c12 [compound 254, 1-cyclohexyl-4-{4-[methyl(oxan-4-yl)amino]phenyl}-3-(propan-2-yl)-1H-pyrazolo[3,4-b]pyridine-6-carboxylic acid] | 417.67 | 333 | 234.6 | 611
5 | CC(=O)N1CCC2CN(c3cc(C(=O)O)nc4c3c(C(C)C)nn4-c3cccc(C)c3)CCC21 (stereo not shown) [compound 255, 4-(1-acetyloctahydro-5H-pyrrolo[3,2-c]pyridin-5-yl)-1-(3-methylphenyl)-3-(propan-2-yl)-1H-pyrazolo[3,4-b]pyridine-6-carboxylic acid] | 302.97 | 294 | 120.77 | 442
6 | Cc1cccc(-n2nc(C(C)C)c3c(N4CCC5C(CCN5CC#N)C4)cc(C(=O)O)nc32)c1 (stereo not shown) [compound 256, 4-[1-(cyanomethyl)octahydro-5H-pyrrolo[3,2-c]pyridin-5-yl]-1-(3-methylphenyl)-3-(propan-2-yl)-1H-pyrazolo[3,4-b]pyridine-6-carboxylic acid] | 362.25 | 2050 | 180 | 3340
7 | Cc1cccc(-n2nc(C(C)C)c3c(N4CCC(S(C)(=O)=O)CC4)cc(C(=O)O)nc32)c1 [compound 257, 4-[4-(methanesulfonyl)piperidin-1-yl]-1-(3-methylphenyl)-3-(propan-2-yl)-1H-pyrazolo[3,4-b]pyridine-6-carboxylic acid] | 440.2 | 788 | 260.4 | 2530
8 | Cc1cccc(-n2nc(C(C)C)c3c(N4CC5(CCOCC5)C4)cc(C(=O)O)nc32)c1 [compound 258, 1-(3-methylphenyl)-4-(7-oxa-2-azaspiro[3.5]nonan-2-yl)-3-(propan-2-yl)-1H-pyrazolo[3,4-b]pyridine-6-carboxylic acid] | 364.3 | 919 | 169.7 | 1290
9 | CC(C)c1nn(-c2cccc(N3CCCC3)c2)c2nc(C(=O)O)cc(-c3cnc(N4CCC(C#N)CC4)nc3)c12 [compound 259, 4-[2-(4-cyanopiperidin-1-yl)pyrimidin-5-yl]-3-(propan-2-yl)-1-[3-(pyrrolidin-1-yl)phenyl]-1H-pyrazolo[3,4-b]pyridine-6-carboxylic acid] | 673.9 | 1010 | 438.95 | 1130
10 | CC(C)c1nn(-c2cccc(C(F)(F)F)c2)c2nc(C(=O)O)cc(-c3ccc(N4CCC(C#N)CC4)nc3)c12 [compound 260, 4-[6-(4-cyanopiperidin-1-yl)pyridin-3-yl]-3-(propan-2-yl)-1-[3-(trifluoromethyl)phenyl]-1H-pyrazolo[3,4-b]pyridine-6-carboxylic acid] | 554.15 | 517 | 326.4 | 784
11 | CC(C)c1nn(-c2cccc(C(F)(F)F)c2)c2nc(C(=O)O)cc(-c3ccc(N4CCC(C#N)CC4)cc3)c12 [compound 261, 4-[4-(4-cyanopiperidin-1-yl)phenyl]-3-(propan-2-yl)-1-[3-(trifluoromethyl)phenyl]-1H-pyrazolo[3,4-b]pyridine-6-carboxylic acid] | 519.37 | 553 | 314.07 | 702
12 | Cc1cccc(-n2nc(C(C)C)c3c(N4CCC5(CCOCC5)C4)cc(C(=O)O)nc32)c1 [compound 262, 1-(3-methylphenyl)-4-(8-oxa-2-azaspiro[4.5]decan-2-yl)-3-(propan-2-yl)-1H-pyrazolo[3,4-b]pyridine-6-carboxylic acid] | 375.95 | 853 | 164.4 | 916
13 | COC1CCN(c2cc(C(=O)O)nc3c2c(C(C)C)nn3C2CCCCC2)CC1 [compound 264, 1-cyclohexyl-4-(4-methoxypiperidin-1-yl)-3-(propan-2-yl)-1H-pyrazolo[3,4-b]pyridine-6-carboxylic acid] | 428.47 | 463 | 213.88 | 747
14 | CC(C)c1nn(C2CCCCC2)c2nc(C(=O)O)cc(N3CCCCC3)c12 [compound 265, 1-cyclohexyl-4-(piperidin-1-yl)-3-(propan-2-yl)-1H-pyrazolo[3,4-b]pyridine-6-carboxylic acid] | 397.8 | 1390 | 132.05 | 1240
15 | CC(C)c1nn(C2CCCCC2)c2nc(C(=O)O)cc(N3CCC(CO)CC3)c12 [compound 266, 1-cyclohexyl-4-[4-(hydroxymethyl)piperidin-1-yl]-3-(propan-2-yl)-1H-pyrazolo[3,4-b]pyridine-6-carboxylic acid] | 405.3 | 1050 | 197.55 | 1250
16 | CC(C)c1nn(-c2cccc(N(C)C)n2)c2nc(C(=O)O)cc(-c3ccc(N4CCOCC4)cc3)c12 [compound 267, 1-[6-(dimethylamino)pyridin-2-yl]-4-[4-(morpholin-4-yl)phenyl]-3-(propan-2-yl)-1H-pyrazolo[3,4-b]pyridine-6-carboxylic acid] | 498.35 | 412 | 318.9 | 807
17 | CC(C)c1nn(-c2cccc(OC(F)(F)F)c2)c2nc(C(=O)O)cc(-c3ccc(N4CCOCC4)cc3)c12 [compound 269, 4-[4-(morpholin-4-yl)phenyl]-3-(propan-2-yl)-1-[3-(trifluoromethoxy)phenyl]-1H-pyrazolo[3,4-b]pyridine-6-carboxylic acid] | 452.33 | 391 | 264.3 | 581
18 | CC(C)c1nn(-c2cccc(N(C)C)c2)c2nc(C(=O)O)cc(N3CCC(C(F)(F)F)C3)c12 (stereo not shown) [compound 270, 1-[3-(dimethylamino)phenyl]-3-(propan-2-yl)-4-[3-(trifluoromethyl)pyrrolidin-1-yl]-1H-pyrazolo[3,4-b]pyridine-6-carboxylic acid] | 430.4 | 529 | 236.02 | 698
19 | Cc1cccc(-n2nc(C(C)C)c3c(N4CCC5(C4)CC5(F)F)cc(C(=O)O)nc32)c1 (stereo not shown) [compound 271, 4-(1,1-difluoro-5-azaspiro[2.4]heptan-5-yl)-1-(3-methylphenyl)-3-(propan-2-yl)-1H-pyrazolo[3,4-b]pyridine-6-carboxylic acid] | 323.5 | 396 | 144.2 | 924
20 | Cc1cccc(-n2nc(C(C)C)c3c(N4CCC(S(C)(=O)=O)C4)cc(C(=O)O)nc32)c1 (stereo not shown) [compound 272, 4-[3-(methanesulfonyl)pyrrolidin-1-yl]-1-(3-methylphenyl)-3-(propan-2-yl)-1H-pyrazolo[3,4-b]pyridine-6-carboxylic acid] | 319.6 | 3340 | 135.5 | 3340
21 | Cc1cccc(-n2nc(C(C)C)c3c(N4CC5(CCC5)C4)cc(C(=O)O)nc32)c1 [compound 273, 4-(2-azaspiro[3.3]heptan-2-yl)-1-(3-methylphenyl)-3-(propan-2-yl)-1H-pyrazolo[3,4-b]pyridine-6-carboxylic acid] | 311.05 | 985 | 100.16 | 1020
22 | Cc1cccc(-n2nc(C(C)C)c3c(N4CC5(CCCCO5)C4)cc(C(=O)O)nc32)c1 [compound 274, 1-(3-methylphenyl)-4-(5-oxa-2-azaspiro[3.5]nonan-2-yl)-3-(propan-2-yl)-1H-pyrazolo[3,4-b]pyridine-6-carboxylic acid] | 301.45 | 902 | 114.64 | 1080

Source: patent US9796711B2, “Substituted pyrazolo[3,4-b]pyridin-6-carboxylic acids and method of use” (AbbVie S.àr.l., priority 2015, dated 2017)
